According to BindingDB's records for doi:10.1016/S0960-894X(97)00161-3 (1997):
pKi: −log10 of the molar value.

Legend:
[1] = Compound was tested for inhibition against Creatine kinase (CK)
[2] = Compound was tested for inhibition against Creatine kinase(CK)

Structure (SMILES) | pKi [1] | pKi [2]
CN(CC(=O)O)C(=N)CP(=O)(O)O [Phosphocreatine analogue] | 2.85 | –
N=C(CP(=O)(O)O)NCC(=O)O [Phosphocreatine analogue] | – | 2.24
N=C(CP(=O)(O)O)NCCC(=O)O [Phosphocreatine analogue] | 1.43 | –
